Assay results taken from US20160287553A1, “TRANSLATION INHIBITORS IN HIGH-DOSE CHEMO- AND/OR HIGH-DOSE RADIOTHERAPY” (DEUTSCHES KREBSFORSCHUNGSZENTRUM, priority 2013, published 2016).
Entries after “also recorded” stand apart in the source; their conditions may differ.

Key:
[1] = tested on: murine hematopoietic stem and progenitor cells (HSPCs); test: Etoposide-induced apoptosis in hematopoietic stem and progenitor cells; format: cell-based, mouse; settings: HSPCs (FIG. 1c)
Experimental: (§1) DNA fragmentation was determined by FACS.
To perform lineage depletion, bone marrow cells were incubated on ice for 40 minutes with rat monoclonal antibodies against common epitopes expressed on mature blood and bone marrow cells (CD11b (M1/70), Gr-1 (RB6.8C5), CD4 (GK1.5), CD8a (53.6.7), Ter119 (Ter119) and B220 (RA3-6B2)). Subsequently, cells were washed and incubated for 15 minutes on ice with anti-rat IgG-coated Dynabeads (4.5 μm supermagnetic polystyrene beads, Invitrogen), 1 ml of beads per 3×10^8 bone marrow cells. Cells expressing lineage markers were depleted using a magnet and the remaining lineage-negative cells were isolated and washed. To provide optimal conditions for HSPCs in downstream experiments lineage-negative hematopoietic stem and progenitor-enriched cells were cultured in StemPro®-34 serum-free medium (Invitrogen, Darmstadt, Germany) supplemented with nutrient supplement (Invitrogen, Darmstadt, Germany) as well as recombinant TPO (50 ng/ml, (Peprotech, Hamburg, Germany)), SCF (50 ng/ml, (Peprotech, Hamburg, Germany)) and Flt3-ligand (50 ng/ml, (Peprotech, Hamburg, Germany)).
Next, we asked whether Roc-A could also protect other normal primary cells from DNA damage-induced toxicity. […]

[2] = tested on: Splenocytes from p53+/+ mice; test: Etoposide-induced cell death in p53 wild-type splenocytes; format: cell-based, mouse; settings: p53-WT splenocytes, 50 μM Etoposide, 75 nM Roc-A (FIG. 4b)
Experimental: as §1
(§2) P53^−/− C57B1/6 mice (B6.Trp53tm1Tyj) were kindly provided by Liu H-K (German Cancer Research Center, Heidelberg, Germany). Spleens of 8-12 week old p53^−/−, and p53^+/+ mice were isolated in parallel, minced and incubated for 30 min in RPMI-1640 medium supplemented with DNase I (50 U/ml) and Collagenase IV (1 mg/ml) at 37° C. and 5% CO2. Splenocytes were filtered by […] cell strainer, washed twice with ice-cold wash buffer (PBS, 0.5% FCS, 2 mM EDTA) and resuspended in Oxford medium (RPMI 1640, 10% FCS, 100 μg/ml Penicillin, 100 μg/ml Streptamycin, 10 mM Hepes, 50 μM β-Mercaptoethanol, 2 mM L-glutamine, 1 mM sodium pyruvate, 100 μM non-essential amino acids) at a concentration of 2×10^6 cells/ml.
(§3) To further investigate the role of p53 in Roc-A-mediated protection of T cells against DNA damage-induced apoptosis, we performed a p53 knock-down experiment using a siRNA approach (FIG. 4a, upper panel). […] Therefore, we examined the effect of Roc-A on p53 knock-out (KO) cells.

p53 protein synthesis = test: Metabolic pulse-labeling and immunoprecipitation of p53; format: cell-based, human; settings: T cells, after Etoposide treatment, pulse-labeling (FIG. 6c)
Experimental: Subsequently, cells were washed in ice-cold PBS, lysed in IP buffer (20 mM Tris-HCl, […], 2 mM EDTA, 1% Triton X-100, protease inhibitors) and centrifuged (10,000 g, 20 min) to clear lysates. Aliquots were taken for input control and lysates were incubated overnight with sepharose-coupled protein A beads, anti-p53 antibody (FL-393; Santa Cruz, Heidelberg, Germany) or isotype control antibody (Sigma-Aldrich, Munich, Germany). Two wash-steps with IP buffer preceded boiling of beads in denaturing sample buffer at 95° C. for […]. Incorporation of […] into p53 protein was detected by the phosphoimaging system FLA-7000 IR (Fujifilm Europe GmbH, Düsseldorf, Germany).
Thus, Roc-A suppresses DNA-damage-induced upregulation of p53 at the translational level.

malignant cells = test: Fold change in cell death on raising the Etoposide dose, malignant cells (FIG. 9a-b); format: cell-based; settings: 75 nM Roc-A in parallel to Etoposide, 6.25 μM to 50 μM, 24 h
Experimental: (a) Cells from (b) were grouped into malignant and non-malignant cells. Shown are means of three independent experiments. Abbreviations; HSPCs=hematopoietic stem and progenitor cells. (c-d) Malignant and non-malignant cells were exposed to ionizing radiation (IR) in the presence of 75 nM Roc-A or solvent (DMSO) and cell death was determined after 24 h by DNA fragmentation. Depicted is the fold-change in cell death that was measured when doses of IR were increased from 2 Gy to 10 Gy. (c) Cells from (d) were grouped into malignant and non-malignant cells. Shown are means of three independent experiments.
as §1
Roc-A specifically prevents the cause of chemotherapeutic and radiation-induced side-effects, i.e., the death of healthy cells. […] Consequently, high-dose therapy is not possible, as side effects would be too high.

[3] = tested on: Splenocytes from p53-/- mice; test: Etoposide-induced cell death in p53 knock-out splenocytes; format: cell-based, mouse; settings: p53-KO splenocytes, 50 μM Etoposide, 75 nM Roc-A (FIG. 4b)
Experimental: as §1, §2, §3

[4] = tested on: EU-3 (acute lymphoblastic leukemia), WT p53; test: Etoposide-induced cell death in EU-3; format: cell-based, human; settings: EU-3 (FIG. 5b)
Experimental: as §1
(§4) Since Roc-A-mediated protection of non-malignant cells from DNA-damage-induced cell death is largely p53-dependent, we predicted that Roc-A would not protect cancer cells which have non-functional p53. […] 1997; 19: 243-253), Reh (Zhou et al, loc cit.), SKW6.4 (Barbarotto et al., J Cell Biochem. 2008; 104: 595-605) and NCI-H209 (Fujita et al. Int J Oncol. 1999; 15: 927-934) which have a WT p53 protein.

[5] = tested on: L1236 (Hodgkin's lymphoma), p53 mutated; test: Etoposide-induced cell death in L1236; format: cell-based, human; settings: L1236 (FIG. 5a)
Experimental: as §1, §4

[6] = tested on: human peripheral blood B cells; test: Etoposide-induced apoptosis in B cells; format: cell-based; settings: B cells (FIG. 1c)
Experimental: as §1
(§5) Next, we asked whether Roc-A could also protect other normal primary cells from DNA damage-induced toxicity. To address this question, we examined the protective effect of Roc-A on Etoposide-treated human peripheral blood B cells, NK cells, neutrophils, cardiomyocytes and murine hematopoietic stem and progenitor cells (HSPCs).

Peripheral blood T cells = test: Teniposide-, Doxorubicin- and Bleomycin-induced apoptotic cell death in T cells; format: cell-based, human; settings: Roc-A 75 nM; increasing doses of the drugs (FIG. 1b)
Experimental: as §1
The radioprotective effect mediated by Roc-A was the highest when cells were treated with Roc-A 1 h before radiation of cells (FIG. 1d). However, when cells were treated 4 h after radiation, the radioprotective effect was still higher than 50% (FIG. 1d).

[7] = tested on: HL-60 (promyelocytic leukemia), p53-deficient; test: Etoposide-induced cell death in HL-60; format: cell-based, human; settings: HL-60 (FIG. 5a)
Experimental: as §1, §4

[8] = tested on: SKW6.4 (B cell leukemia), WT p53; test: Etoposide-induced cell death in SKW6.4; format: cell-based, human; settings: SKW6.4 (FIG. 5b)
Experimental: as §1, §4

neutrophils = test: Etoposide-induced apoptosis in neutrophils; format: cell-based, human; settings: neutrophils (FIG. 1c)
Experimental: as §1, §5

SMILES: COc1ccc([C@@]23Oc4cc(OC)cc(OC)c4[C@]2(O)[C@H](O)[C@H](C(=O)N(C)C)[C@H]3c2ccccc2)cc1 [Roc-A, (1R,2R,3S,3aR,8bS)-1,8b-dihydroxy-6,8-dimethoxy-3a-(4-methoxyphenyl)-N,N-dimethyl-3-phenyl-2,3-dihydro-1H-cyclopenta[b][1]benzofuran-2-carboxamide]
- Protection against Etoposide-induced apoptosis [1]: protected
- Protection against Etoposide-induced cell death [2]: protected
- [35S]methionine incorporation into the p53 protein (p53 protein synthesis): inhibits p53 protein translation; also recorded: suppressed [^35S]methionine incorporation into the p53 protein
- Change in cell death on increased Etoposide doses with Roc-A (malignant cells): increased cell death in malignant cells
- Protection against Etoposide-induced cell death [3]: abolished; also recorded: not statistically significant
- Protection against Etoposide-induced cell death [4]: protected by Roc-A from Etoposide-induced cell death but to a lesser extent than non-malignant cells
- Protection against Etoposide-induced cell death [5]: did neither protect
- Protection against Etoposide-induced apoptosis [6]: protected
- Drug-induced apoptosis (Teniposide, Doxorubicin, Bleomycin) (Peripheral blood T cells): reduces Teniposide-, Doxorubicin- and Bleomycin-induced apoptotic cell death in T cells; also recorded: could reduce drug-induced apoptosis in all cases
- Protection against Etoposide-induced cell death [7]: did neither protect
- Protection against Etoposide-induced cell death [8]: protected by Roc-A from Etoposide-induced cell death but to a lesser extent than non-malignant cells
- Protection against Etoposide-induced apoptosis (neutrophils): protected
